Data: patent US20140051650A1, “VAGINAL COMPOSITIONS BASED ON ALKYL POLYGLUCOSIDES” (EFFIK S.A., priority 2011, published 2014)

Columns and labels:
Format in all cases: cell-based
[1] = tested on: Lactobacillus crispatus NCIMB 4505; assay: MBC against Lactobacillus crispatus; details: substance alone
Experimental: (§1) The vaginal lactobacillus strains used are the NCIMB 4505 strain of Lactobacillus crispatus, the NCIMB 13279 strain of Lactobacillus jensenii and NCIMB 702820 strain of Lactobacillus gasseri. [table] The other assayed microbial strains were cultured in the liquid media and in the incubation conditions specified in table A, following the operating procedure described above. Immediately after determining the value of the MIC for each substance, a volume equivalent to 50 μl was taken from each well and streaked on the surface of plates containing the solid medium. The plates were subsequently incubated at the conditions indicated for each microbial strain. After incubation at 37° C. for 24 hours, the number of colonies grown on the medium surface was counted thus determining the number of bacteria that survived after 24 hours of contact with the substance at the concentration present in the well. The MBC value defined as the lowest concentration of each substance capable of reducing the bacterial load by 99.9% in the previously defined assay conditions was determined through comparison between the number of bacteria that survived in each well and that of the bacterial inoculum deposited initially.

Streptococcus agalactiae = assay: Minimum Inhibitory Concentration (MIC) on agarised medium against Streptococcus agalactiae
Experimental: The assay was carried out on an M-Ha medium+blood at 5%. The medium was prepared at a concentration 33% higher with respect to the final one used in the test corresponding to the one indicated by the supplier. After sterilisation in autoclave, the medium was balanced at the temperature of 48° C. and added with horse blood at the concentration of 6.6% (33% higher than the final concentration of the assay). 15 ml aliquots of M-Ha medium+blood were transferred into 50 ml falcon test tubes maintained at 48° C., added with 5 ml of the dilutions of the substances to be assayed, mixed, poured into Petri dishes and left to solidify. Twenty-five bacterial inoculums, each with approximate volume of about 5 μl and containing about 10^5 ufc, were deposited on the surface of the M-Ha medium+blood of each plate. After incubation at 37° C. for 18 hours the minimum inhibitory concentration (MIC) defined as the minimum concentration of substance capable of inhibiting a bacterial growth noticeable to the naked eye at the area of deposition of the inoculums was read.
In the test with Streptococcus agalactiae the minimum inhibitory concentrations in the assay in liquid medium, regarding which only the bactericide minimum concentration values are indicated, could not be determined with sufficient reliability due to the turbidity of the solutions containing the substances. “Determination of the Minimum Inhibitory Concentration on Agarised Medium” was carried out to obtain the MIC values.

[2] = tested on: Lactobacillus crispatus NCIMB 4505; assay: MIC against Lactobacillus crispatus; details: substance alone
Experimental: (§2) The vaginal lactobacillus strains used are the NCIMB 4505 strain of Lactobacillus crispatus, the NCIMB 13279 strain of Lactobacillus jensenii and NCIMB 702820 strain of Lactobacillus gasseri. [table] The other assayed microbial strains were cultured in the liquid media and in the incubation conditions specified in table A, following the operating procedure described above. The assay was carried out in 96-well microtitre plates. 50 μl of substance solution at the “mother” concentration alongside 50 μl of liquid medium at double concentration were deposited in the first well of each of the 8 rows while 50 μl of liquid medium at normal concentration were deposited in the remaining 11 wells. Starting from the first well of each row, 50 μl volumes were transferred from each well to the subsequent one 10 times, thus obtaining a series of 11 dilutions after doubling. The 12th well of each row was kept substance-free as a function of positive control of the bacterial growth. Subsequently, 50 μl of diluted bacterial inoculum as specified previously were deposited in all wells of the plate, except for the 11th of each row. Only the liquid medium at single concentration but bacteria-free, was deposited in the 11th well, with the aim of providing negative control for each row. The described scheme was used for the assay with each of the assayed microbial strains. […]

[3] = tested on: Lactobacillus gasseri NCIMB 702820; assay: MBC against Lactobacillus gasseri; details: substance alone
Experimental: as §1

[4] = tested on: Lactobacillus jensenii NCIMB 13279; assay: MBC against Lactobacillus jensenii; details: substance alone
Experimental: as §1

[5] = tested on: Lactobacillus gasseri NCIMB 702820; assay: MIC against Lactobacillus gasseri; details: substance alone
Experimental: as §2

Row | Substance | MBC [1] | MIC (minimum inhibiting concentration) (Streptococcus agalactiae; strain 2, substance alone) | MIC (minimum inhibiting concentration) (Streptococcus agalactiae; strain 5, substance alone) | MIC (minimum inhibiting concentration) (Streptococcus agalactiae; strain 6, substance alone) | MIC (minimum inhibiting concentration) (Streptococcus agalactiae; strain 7, substance alone) | MIC (minimum inhibiting concentration) (Streptococcus agalactiae; strain 8, substance alone) | MIC (minimum inhibiting concentration) (Streptococcus agalactiae; strain 9, substance alone) | MIC (minimum inhibiting concentration) (Streptococcus agalactiae; strain 10, substance alone) | MIC (minimum inhibiting concentration) (Streptococcus agalactiae; strain 11, substance alone) | MIC (minimum inhibiting concentration) (Streptococcus agalactiae; strain 12, substance alone) | MIC (minimum inhibiting concentration) (Streptococcus agalactiae; strain 13, substance alone) | MIC (minimum inhibiting concentration) (Streptococcus agalactiae; strain 14, substance alone) | MIC (minimum inhibiting concentration) (Streptococcus agalactiae; strain 15, substance alone) | MIC (minimum inhibiting concentration) (Streptococcus agalactiae; strain 16, substance alone) | MIC (minimum inhibiting concentration) (Streptococcus agalactiae; strain 17, substance alone) | MIC (minimum inhibiting concentration) (Streptococcus agalactiae; strain 18, substance alone) | MIC (minimum inhibiting concentration) (Streptococcus agalactiae; strain 19, substance alone) | MIC (minimum inhibiting concentration) (Streptococcus agalactiae; strain 20, substance alone) | MIC (minimum inhibiting concentration) (Streptococcus agalactiae; strain 21, substance alone) | MIC (minimum inhibiting concentration) (Streptococcus agalactiae; strain 22, substance alone) | further results
1 | caprylyl/capryl glucoside/C8-C10 alkyl polyglucoside [Substance A1] | 0.193% | 0.093% | 0.093% | 0.048% | 0.093% | 0.19% | 0.093% | 0.19% | 0.093% | 0.093% | 0.093% | 0.093% | 0.048% | 0.093% | 0.048% | 0.19% | 0.093% | 0.048% | 0.048% | 0.093% | MIC (minimum inhibiting concentration) (Streptococcus agalactiae; strain 23, substance alone): 0.093%; MIC (minimum inhibiting concentration) (Streptococcus agalactiae; strain 24, substance alone): 0.093%; MIC (minimum inhibiting concentration) (Streptococcus agalactiae; strain 25, substance alone): 0.048%; MIC (minimum inhibiting concentration) (Streptococcus agalactiae; strain 12386, substance alone): 0.093%; MIC (minimum inhibiting concentration) (Streptococcus agalactiae; strain 12403, substance alone): 0.093%; MIC (minimum inhibiting concentration) (Streptococcus agalactiae; strain 27956, substance alone): 0.093%; MIC [2]: 0.097%; MBC [3]: 0.193%; MBC [4]: 0.193%; MIC [5]: 0.097%
2 | lauryl glucoside/C12-C16 alkyl polyglucoside [Substance A2] | 0.077% | 0.0097% | 0.019% | 0.0097% | 0.0097% | 0.019% | 0.0097% | 0.019% | 0.0097% | 0.0097% | 0.0097% | 0.0097% | 0.019% | 0.0097% | 0.0097% | 0.019% | 0.0097% | 0.0097% | 0.0097% | 0.0097% | MIC (minimum inhibiting concentration) (Streptococcus agalactiae; strain 23, substance alone): 0.0097%; MIC (minimum inhibiting concentration) (Streptococcus agalactiae; strain 24, substance alone): 0.0097%; MIC (minimum inhibiting concentration) (Streptococcus agalactiae; strain 25, substance alone): 0.0097%; MIC (minimum inhibiting concentration) (Streptococcus agalactiae; strain 12386, substance alone): 0.0097%; MIC (minimum inhibiting concentration) (Streptococcus agalactiae; strain 12403, substance alone): 0.0097%; MIC (minimum inhibiting concentration) (Streptococcus agalactiae; strain 27956, substance alone): 0.019%; MIC [2]: 0.038%; MBC [3]: 0.077%; MBC [4]: 0.077%; MIC [5]: 0.077%
